Residues, ends and D or L forms follow the SMILES beside them.
Legend:
[1] = test system: tic disorders; test: Test Case 1: a case with improved tic disorder; type: in vivo, human; conditions: for effect of earlier drug therapy on tic symptoms (history): patient history before theanine
Excerpt: <Test Case 1> A Case with Improved Tic Disorder
Patient: (Sixth grade elementary school student);
Chief complaint: shaking hands and head
History: Since being elected as temporary class representative of the fourth grade class of elementary school, the patient had blinking eyes and subsequently shook their face and shoulders; thus, they visited a nearby hospital and received diazepam. […] In the following year, around the time of moving to Osaka, the patient suffered a relapse of symptoms of shaking their face and shoulders again and thus visited the pediatric department of O hospital and received haloperidol.

[2] = test system: mice; type: in vivo; conditions: oral administration of 5 g/kg
[3] = test system: Tourette's disorder; test: Test Case 2: a case with improved Tourette's disorder; type: in vivo, human
Excerpt: <Test Case 2> A Case with Improved Tourette's Disorder
Patient: child; body weight: 43 kg
The tics were milder when they were in school or with others, and were more frequently observed in the presence of only their family. (in the third semester of the sixth grade), they visited our clinic worrying about bullying at their junior high school. […] In addition, the patient continuously moved their hands and legs and tended to be restlessly absent-mindedly hyperactive.
Psychosocial case history: The patient was always crying due to inherent sensitivity; thus, their parent felt anxious about child-rearing. They were severely afraid of strangers and timid, and often cried for fear. […] They often cut into others' conversation and was too talkative. Their parent can get along with their younger sibling casually, but is feeling awkwardness and pain with the patient due to the lack of closeness. Their parent is not nagging so much, and seems to accept the patient. Clinical course: The patient was diagnosed as having Tourette's disorder, and the disease was explained to their parents. To alleviate the symptoms, haloperidol (trade name: Serenase (trademark); Dainippon Pharmaceutical Co. Ltd.) was used.
The administration of theanine is scheduled to be continued until the end of puberty. The patient has joined their junior high school track club, and has tics, although unnoticeable. The patient has become a bit disobedient and often falls silent, but is highly motivated with study.

[4] = test system: tic disorders; test: Test Case 3: a case with improved tic disorder; type: in vivo, human; conditions: patient; 0.8 g theanyl-theanine daily for 30 days
Excerpt: <Test Case 3> A Case with Improved Tic Disorder
Patient: child; height 121 cm; body weight 20 kg
Chief complaint: repetitive guttural
They were diagnosed as having tics.
The parent disciplined the child by scolding. They were pressed with child-rearing and housework and had little free time; thus, they were always nagging due to frustration. In July 1990, the patient developed involuntary movements of shaking their shoulders up and down, and in addition, repetitive guttural. In Sep. 6, 1990, the patient first visited the clinic. The affected child was thin with abdominal palpitation and spasms of the musculus rectus abdominis. Since October, the patient received 8 tablets combined with theanyl-theanine in example 5 (0.8 g theanyl-theanine) daily for 30 days.

Compound: CN1C(=O)CN=C(c2ccccc2)c2cc(Cl)ccc21 [diazepam]
- effect of earlier drug therapy on tic symptoms (history) ([1]; patient): no effect

Compound: CCNC(=O)CC[C@H](N)C(=O)O [theanine, L-theanine]
- death or abnormality in general conditions and body weight [2]: neither death nor abnormality in general conditions and body weight was observed
- adverse effects ([1]; in vivo): no adverse effects
- adverse effects ([3]; in vivo): no adverse effects

Compound: CCNC(=O)CC[C@H](NC(=O)[C@@H](N)CCC(=O)NCC)C(=O)O [theanyl-theanine] (H-Glu(NHEt)-Glu(NHEt)-OH)
- adverse effects [4]: no adverse effects

Compound: O=C(CCCN1CCC(O)(c2ccc(Cl)cc2)CC1)c1ccc(F)cc1 [haloperidol]
- adverse effects of earlier drug therapy (history) ([1]; patient, increased dosage, patient history): speech defect
- effect of earlier drug therapy on tic symptoms (history) ([1]; patient): insufficient effect
- adverse effects of earlier drug therapy ([3]; patient, 0.25 mg to 0.5 mg): drowsiness was caused as an adverse effect
- symptoms of Tourette's disorder under earlier drug therapy ([3]; patient, dosage gradually increased from 0.25 mg to 0.5 mg): alleviated the symptoms such as tics and restlessness

Reference: patent US20060217321A1, “Compositions to improve tic disorders” (priority 2005, published 2006)
